Values of other authors in patent publication US11071781B2, “Combination of local and systemic immunomodulative therapies for enhanced treatment of cancer” (Provectus Pharmatech, Inc., priority 2011, dated 2021).
Values joined by “and” are separate entries in the source; they are usually repeats but may differ in a detail not shown here. Equal entries are not always repeated. Where two headings read alike, the source gives them in different places.

Columns and labels:
melanoma = details: for toxicity and side effects: patients
cancer cells = details: previous work, WO 02/05812
[1] = intralesional therapy, melanoma patients

N.N.[Cl][Pt][Cl] [cisplatin, reference compound]
objective response rate (ORR) (melanoma; [1]): 38% and 53% | ORR (melanoma; lesions having a median diameter of 3.0 cm): 44% | ORR (melanoma; lesions with a median diameter of 0.6 cm): 53%

O=C1OC2(c3cc(I)c(O)c(I)c3Oc3c2cc(I)c(O)c3I)c2c(Cl)c(Cl)c(Cl)c(Cl)c21 [rose bengal, 4,5,6,7-tetrachloro-2′,4′,5′,7′-tetraiodofluorescein]
uptake into cancer cells versus normal cells (cancer cells): preferential uptake into cancer cells but is essentially excluded from normal cells

IFN-α
complete response (CR) (melanoma; [1]): 31% | objective response rate (ORR) (melanoma; [1]): 45% | partial response (PR) (melanoma; [1]): 14% | toxicity and side effects (melanoma; intralesional therapy): significant toxicity and side effects

bleomycin [reference compound]
efficacy (in words) (melanoma; single electrochemotherapy treatment, intralesional): Substantial efficacy

B1: IFN-γ: interferon-gamma, non-specific cytokine (protein, UniProt P01579 24-161, looked up)
Interferon gamma: QDPYVKEAENLKKYFNAGHSDVADNGTLFLGILKNWKEESDRKIMQSQIVSFYFKLFKNFKDDQSIQKSVETIKEDMNVKFFNSNKKKRDDFEKLTNYSVTDLNVQRKAIHELIQVMAELSPAAKTGKRKRSQMLFRG
response to IL therapy (in words) (melanoma; intralesional interferon): either no result or transient response | toxicity and side effects (melanoma; intralesional therapy): significant toxicity and side effects
